This is an account of results in US10538528B2, “5H-pyrrolo[2,3-D]pyrimidin-6(7H)-one derivative” (Taiho Pharmaceutical Co., Ltd., priority 2016, dated 2020).

The target of one experiment is human Akt1 (Homo sapiens (Human), UniProt P31749). Kind of experiment: Inhibitory effects on Akt1 kinase activity (TR-FRET, biotinylated Crosstide). The format is biochemical. The following applies: Akt1, ATP 150 μM, pre-incubation 120 minutes at 25° C.; read-out: AKT inhibitory activity IC50. In a few lines: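 Middle T-tagged human Akt1 from Sf9 cells, PDK1-activated, pre-incubated with compound 120 min at 25 °C (Tris pH 7.5); then 500 nM biotin-Crosstide, 10 mM MgCl2, 150 μM ATP for 60 min at 25 °C. Eu-anti-phospho-Crosstide/APC-SA TR-FRET 665/620 ratio; IC50 as 50% phosphorylation inhibition.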
On the technique in general: Time-resolved FRET reads energy transfer from a long-lived donor to a nearby acceptor.

The test system of experiment [1] is RKO cells (human colon cancer cell lines). Kind of experiment: Cell growth inhibition study using RKO cells (CellTiter-Glo). To be noted: 72 h, 3 days. The format is cell-based. How it is done:
The in vitro cell growth inhibition study using RKO cells (human colon cancer cell lines) was conducted as described below.
RKO cells (ATCC, Cat#: CRL-2577) cultured in a MEM medium (GIBCO, Cat#:10370-088) supplemented with 10% FBS, 1 mM L-glutamine (GIBCO, Cat#:25030), and 1 mM sodium pyruvate (GIBCO, Cat#:11360) were seeded in a 96-well flat bottom microplate (COSTAR, Cat#:3904) at 2×10^3 cells (150 μl) and cultured in an incubator containing 5% CO2 at 37° C. for 1 day. The compound according to the present invention subjected to serial dilution with dimethyl sulfoxide or dimethyl sulfoxide alone was added to a MEM medium containing 10% FBS, 1 mM L-glutamine, and 1 mM sodium pyruvate. The resultant medium containing the compound or dimethyl sulfoxide alone was added to the RKO cells in the culture plate by 50 μl/well at the final concentration of the compound to 10, 3, 1, 0.3, 0.1, 0.03, 0.01, 0.003, and 0 μM, respectively. Another RKO cell culture plate separately prepared was allowed to stand at room temperature for 30 minutes, then 100 μl of the medium was removed, and added 50 μl of CellTiter-Glo® 2.0 Assay (Promega, Cat#:G9242) to each well. After the plates were placed in the dark for 10 minutes, the luminescence level derived from viable cells in each well was measured by the Multimode Plate Reader (PerkinElmer, EnSpire). The cells treated with the compound or dimethyl sulfoxide alone were cultured at 37° C. in an incubator containing 5% CO2 for an additional 3 days. After incubation, the culture plate was placed at room temperature for 30 minutes, and 150 μl of the supernatant was removed from each well to adjust the amount of the remaining cell culture solution to 50 μl each. To 50 μl of the remaining cell culture solution, the equivalent amount of CellTiter-Glo® 2.0 Assay was added. After the cell culture plate was placed in the dark for 10 minutes, the luminescence level derived from viable cells in each well was assayed with the use of the Multimode Plate Reader. The cell growth rate was calculated by the formulae shown below and the concentration at which the cell growth rate became 50%; i.e., the concentration of the compound according to the present invention at which cell growth would be inhibited by 50% was determined (GI50 (nM)). Cell growth rate (%)=(T−C0)/(C−C0)×100, provided that T is equal to or greater than C0(T≥C0) Cell growth rate (%)=(T−C0)/C0×100, provided that T is less than C0(T<C0) C0: Luminescence level in each well when the compound is added (count per second) C: Luminescence level in each well when dimethyl sulfoxide is added alone (count per second) T: Luminescence level in each well when the test compound is added (count per second)
As control compounds, conventional Comparative Example A (WO 2010/056563 (Example 31)) and Comparative Example B having inhibitory activity against Akt were used.
The GI50 levels of representative compounds according to the present invention and reference compounds in RKO cells were evaluated, and the results are shown in Table 5.
Background: ATP-based viability assays read luminescence as a measure of living cells.

For experiment [2], the system named is HEC-6 cells (endometrial cancer cell lines). Briefly: Cell growth suppression test on HEC-6 cells (CellTiter-Glo). The format is cell-based. The following applies: 72 h, read-out: Cell growth inhibition GI50, heading: Cell growth inhibition GI50, 3 days, table head prints μM, method says GI50 (nM). The method, then:
The in vitro cell growth suppression test on HEC-6 cells (endometrial cancer cell lines) was performed under the conditions described below.
HEC-6 cells (Health Science Research Resources Bank, Cell Number: JCRB1118) cultured in a MEM medium containing 15% FBS (GIBCO, Cat#: 10370) were seeded on a 384-well flat bottom microplate (CORNING, Cat#: 3571) at 500 cells/well (20 μl) and cultured in an incubator containing 5% carbon dioxide at 37° C. for 1 day. The compound according to the present invention subjected to serial dilution with dimethyl sulfoxide or dimethyl sulfoxide alone was added to a MEM medium containing 15% FBS. […] Thereafter, the luminescence level derived from viable cells in each well was assayed with the use of the Multimode Plate Reader (PerkinElmer, EnVision). […] Thereafter, the luminescence level derived from viable cells in each well was assayed with the use of the Multimode Plate Reader. […] Cell growth rate (%)=(T−C0)/(C−C0)×100, provided that T is equal to or greater than C0(T≥C0) Cell growth rate (%)=(T−C0)/C0×100, provided that T is less than C0(T<C0) C0: Luminescence level in each well when the compound is added (count per second) C: Luminescence level in each well when dimethyl sulfoxide is added alone (count per second) T: Luminescence level in each well when the test compound is added (count per second) […]

Chain of human Akt1 (P31749 whole entry): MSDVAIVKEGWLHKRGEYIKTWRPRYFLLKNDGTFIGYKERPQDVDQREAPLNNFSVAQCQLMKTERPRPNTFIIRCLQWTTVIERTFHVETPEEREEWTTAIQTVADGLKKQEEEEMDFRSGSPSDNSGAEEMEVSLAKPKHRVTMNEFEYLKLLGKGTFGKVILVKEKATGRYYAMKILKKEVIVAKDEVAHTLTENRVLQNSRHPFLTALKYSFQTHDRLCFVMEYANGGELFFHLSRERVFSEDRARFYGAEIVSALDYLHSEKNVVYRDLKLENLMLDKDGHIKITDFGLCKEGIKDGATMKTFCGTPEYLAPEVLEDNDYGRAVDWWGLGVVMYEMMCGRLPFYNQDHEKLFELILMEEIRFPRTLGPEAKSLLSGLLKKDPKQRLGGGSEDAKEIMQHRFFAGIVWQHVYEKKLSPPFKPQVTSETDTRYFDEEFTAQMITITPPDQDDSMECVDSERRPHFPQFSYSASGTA

Consider `CC(C)(C)NCCNc1cc(-c2cncc(F)c2)nc(C2CCN(c3ncnc4c3C(C)(C)C(=O)N4)CC2)c1` [Comparative Example B, 4-(4-(4-((2-(Tert-butylamino)ethyl)amino)-5′-fluoro-[2,3′-bipyridin]-6-yl)piperidin-1-yl)-5,5-dimethyl-5H-pyrrolo[2,3-d]pyrimidin-6(7H)-one, reference compound], for which the IC50 (as a rule, the point on the concentration scale where inhibition reaches its midpoint) at human Akt1 stood at 657 nM. Besides, the GI50 (in general, the concentration that inhibits growth by half) in experiment [1] came out at 2640 nM; in experiment [2], 2.92 µM.
